Data taken from ChEMBL document CHEMBL1139280, “Potent inhibitors of HCV-NS3 protease derived from boronic acids” (Bioorg Med Chem Lett, 2009).
pKi: −log10 of the molar value.

Assays:
[1] = Inhibition of HCV NS3 protease assessed as hydrolysis of chromogenic 4-phenylazophenyl ester from peptide fragment Ac-DTEDVVP(Nva)-O-4-PAP by spectrophotometry; set-up: species or system Hepacivirus hominis
Hepatitis C virus = test: Inhibition of HCV subgenomic RNAs replication in human hepatoma cells; type: functional, Hepacivirus hominis

Compound	pKi [1]	EC90 (Hepatitis C virus) [nM]
CC(C)(C)NC(=O)N[C@H](C(=O)N1C[C@H]2[C@@H](C1C(=O)N[C@@H](CC1CCC1)B1O[C@@H]3C[C@@H]4C[C@@H](C4(C)C)[C@]3(C)O1)C2(C)C)C(C)(C)C (stereo partly drawn)	8.00	> 5000
CC[C@H](NC(=O)[C@@H]1[C@@H]2[C@H](CN1C(=O)[C@@H](NC(=O)N[C@H](CN(C)S(C)(=O)=O)C(C)(C)C)C(C)(C)C)C2(C)C)B(O)O	7.28	> 5000
CN(C[C@@H](NC(=O)N[C@H](C(=O)N1C[C@H]2[C@@H]([C@H]1C(=O)N[C@@H](CC1CCC1)B(O)O)C2(C)C)C(C)(C)C)C(C)(C)C)S(C)(=O)=O	9.70	> 5000
CC[C@H](NC(=O)[C@@H]1[C@@H]2[C@H](CN1C(=O)[C@@H](NC(=O)NC(C)(C)C)C(C)(C)C)C2(C)C)B(O)O	8.00	> 5000
CC[C@H](NC(=O)C1[C@@H]2[C@H](CN1C(=O)[C@@H](NC(=O)NC(C)(C)C)C(C)(C)C)C2(C)C)B1O[C@@H]2C[C@@H]3C[C@@H](C3(C)C)[C@]2(C)O1 (stereo partly drawn)	6.42	> 5000
CC[C@H](NC(=O)[C@@H]1[C@@H]2[C@H](CN1C(=O)[C@@H](NC(=O)NC(C)(C)C)C(C)(C)C)C2(C)C)B1O[C@@H]2C[C@@H]3C[C@@H](C3(C)C)[C@]2(C)O1	6.30	> 5000
CN(C[C@@H](NC(=O)N[C@H](C(=O)N1C[C@H]2[C@@H]([C@H]1C(=O)N[C@@H](CC1CCC1)B1O[C@@H]3C[C@@H]4C[C@@H](C4(C)C)[C@]3(C)O1)C2(C)C)C(C)(C)C)C(C)(C)C)S(C)(=O)=O	9.30	> 5000
CC[C@H](NC(=O)[C@@H]1[C@@H]2[C@H](CN1C(=O)[C@@H](NC(=O)N[C@H](CN(C)S(C)(=O)=O)C(C)(C)C)C(C)(C)C)C2(C)C)B1O[C@@H]2C[C@@H]3C[C@@H](C3(C)C)[C@]2(C)O1	7.47	> 5000
CC(C)(C)NC(=O)N[C@H](C(=O)N1C[C@H]2[C@@H]([C@H]1C(=O)NC(CC1CCC1)C(=O)C(N)=O)C2(C)C)C(C)(C)C (stereo partly drawn) [BOCEPREVIR]	7.85	350
